Laboratory results published in PubChem BioAssay AID248 (DTP/NCI, 2004).
Where “and” joins values, the source holds several entries; their conditions need not be identical. Equal values may be shown once. Inconclusive results and toxic doses are left out. Cut-off read from the data, not from the text of the source: active = T/C of 150% or more; inactive = T/C below 125%.

Test system: L1210 leukemia ip in BDF1 mice, survival T/C
Test: NCI In Vivo Anticancer Drug Screen. Data for tumor model L1210 Leukemia (intraperitoneal) in B6D2F1 (BDF1) mice
Settings: endpoint: mean survival time, higher = longer survival
Method in brief: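 Survival endpoint. Drug-treated group vs vehicle group, expressed as T divided by C. Tumor passaged by transplantation.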

[1] = dose: 100.0 mg/kg/injection, schedule: Q04DX003 (ip), vehicle: saline with Tween-80
[2] = dose: 200.0 mg/kg/injection, schedule: Q01DX009 (ip), vehicle: saline with Tween-80
[3] = dose: 200.0 mg/kg/injection, schedule: Q04DX003 (ip), vehicle: saline with Tween-80
[4] = dose: 400.0 mg/kg/injection, schedule: Q01DX009 (ip), vehicle: saline with Tween-80
[5] = dose: 400.0 mg/kg/injection, schedule: Q04DX003 (ip), vehicle: saline with Tween-80
[6] = dose: 100.0 mg/kg/injection, schedule: Q04DX003 (ip), vehicle: saline
[7] = dose: 200.0 mg/kg/injection, schedule: Q04DX003 (ip), vehicle: saline
[8] = dose: 400.0 mg/kg/injection, schedule: Q04DX003 (ip), vehicle: saline
[9] = dose: 100.0 mg/kg/injection, schedule: Q01DX009 (ip), vehicle: saline with Tween-80

Measured: T/C

O=[N+]([O-])c1cccc2c1CCCC2
inactive: dose: 12.5 mg/kg/injection, schedule: Q01DX009 (ip), vehicle: saline with Tween-80 98 % of control | dose: 25.0 mg/kg/injection, schedule: Q01DX009 (ip), vehicle: saline with Tween-80 93 % of control | dose: 50.0 mg/kg/injection, schedule: Q01DX009 (ip), vehicle: saline with Tween-80 98 % of control | [1] 107 % of control | [2] 87 % of control | [3] 105 % of control | [4] 105 % of control | [5] 96 % of control

Fc1ccc(-c2n[nH]c3c2CCCc2ccccc2-3)cc1
inactive: [1] 113 % of control | [3] 111 % of control | [5] 102 % of control

C=CCN(CC=C)CCNc1cc(C)nc(/N=C(\N)Nc2ccc(Cl)c(Cl)c2)n1
inactive: dose: 75.0 mg/kg/injection, schedule: Q01DX001 (ip), vehicle: other 92 % of control | dose: 150.0 mg/kg/injection, schedule: Q01DX001 (ip), vehicle: other 92 % of control | dose: 300.0 mg/kg/injection, schedule: Q01DX001 (ip), vehicle: other 92 % of control

CCCCCCCCCCCCCCCCOc1ccc(S(=O)(=O)N(Cc2ccccc2)Cc2ccccc2)cc1[N+](=O)[O-]
inactive: [1] 86 % of control | [3] 95 % of control | [5] 90 % of control

CCOC(=O)CCC(NC(=O)C1CSC(C)(C)N1C=O)C(=O)OCC (stereo not drawn)
inactive: [6] 104 % of control | [7] 93 % of control | [8] 98 % of control

O=C(c1ccco1)C1Cc2ccccc2C1=O (stereo not drawn)
inactive: dose: 100.0 mg/kg/injection, schedule: Q01DX009 (ip), vehicle: Klucel (hydroxypropylcellulose) (HPC) 95 % of control | dose: 100.0 mg/kg/injection, schedule: Q04DX003 (ip), vehicle: alcohol 109 % of control | dose: 200.0 mg/kg/injection, schedule: Q01DX009 (ip), vehicle: Klucel (hydroxypropylcellulose) (HPC) 94 % of control | dose: 200.0 mg/kg/injection, schedule: Q04DX003 (ip), vehicle: alcohol 104 % of control | dose: 400.0 mg/kg/injection, schedule: Q01DX009 (ip), vehicle: Klucel (hydroxypropylcellulose) (HPC) 97 % of control | dose: 400.0 mg/kg/injection, schedule: Q04DX003 (ip), vehicle: alcohol 103 % of control

O=C(O)C(Cl)c1ccccc1 (stereo not drawn)
inactive: dose: 25.0 mg/kg/injection, schedule: Q01DX009 (ip), vehicle: gum acacia 114 % of control | dose: 50.0 mg/kg/injection, schedule: Q01DX009 (ip), vehicle: gum acacia 109 % of control | dose: 100.0 mg/kg/injection, schedule: Q01DX009 (ip), vehicle: gum acacia 106 % of control | dose: 100.0 mg/kg/injection, schedule: Q04DX003 (ip), vehicle: Klucel (hydroxypropylcellulose) (HPC) 92 % of control | [1] 95 % of control | dose: 200.0 mg/kg/injection, schedule: Q04DX003 (ip), vehicle: Klucel (hydroxypropylcellulose) (HPC) 93 % of control | [3] 101 % of control | dose: 400.0 mg/kg/injection, schedule: Q04DX003 (ip), vehicle: Klucel (hydroxypropylcellulose) (HPC) 97 % of control | [5] 88 % of control

C#C/C=C/CC1OC(C(Br)CC)CC2OC1CC2Br (stereo not drawn)
inactive: dose: 75.0 mg/kg/injection, schedule: Q01DX001 (ip), vehicle: carboxymethylcellulose (CMC) 94 % of control | dose: 150.0 mg/kg/injection, schedule: Q01DX001 (ip), vehicle: carboxymethylcellulose (CMC) 96 % of control | dose: 300.0 mg/kg/injection, schedule: Q01DX001 (ip), vehicle: carboxymethylcellulose (CMC) 96 % of control

O=C(O)C(C(=O)O)C(=O)O
inactive: dose: 75.0 mg/kg/injection, schedule: Q01DX001 (ip), vehicle: saline 94 % of control | dose: 150.0 mg/kg/injection, schedule: Q01DX001 (ip), vehicle: saline 94 % of control

COC(=O)c1ccccc1N=NNc1ccc2c(=O)c3ccccc3[nH]c2c1
inactive: [6] 95 % of control | [7] 86 % of control | [8] 86 % of control

O=c1[nH][nH]c(=O)n1O
inactive: dose: 100.0 mg/kg/injection, schedule: Q01DX001 (ip), vehicle: saline with Tween-80 102 % of control | dose: 100.0 mg/kg/injection, schedule: Q01DX009 (ip), vehicle: acetone 105 % of control | [9] 91 % of control | dose: 100.0 mg/kg/injection, schedule: Q01DX009 (ip), vehicle: saline 94 % of control and 92 % of control | [1] 101 % of control and 109 % of control | dose: 130.0 mg/kg/injection, schedule: Q01DX009 (ip), vehicle: saline 89 % of control | dose: 200.0 mg/kg/injection, schedule: Q01DX001 (ip), vehicle: saline with Tween-80 106 % of control | [2] 88 % of control | [3] 102 % of control and 105 % of control | dose: 300.0 mg/kg/injection, schedule: Q01DX009 (ip), vehicle: saline 98 % of control and 89 % of control | dose: 400.0 mg/kg/injection, schedule: Q01DX001 (ip), vehicle: saline with Tween-80 104 % of control | dose: 400.0 mg/kg/injection, schedule: Q01DX009 (ip), vehicle: acetone 88 % of control | dose: 400.0 mg/kg/injection, schedule: Q01DX009 (ip), vehicle: saline 88 % of control | [5] 98 % of control and 89 % of control

COc1ccc(C(C)c2ccccc2)cc1C(C)c1ccccc1 (stereo not drawn)
inactive: [9] 93 % of control | [1] 98 % of control | [2] 95 % of control | [3] 89 % of control | [4] 88 % of control | [5] 98 % of control
